Assay results published in publication PMC6895912 (Cancers, 2019).
Several values for one entry are separate records, joined by “and”; a condition that tells them apart may be missing. Equal values may be shown once. Read-outs that look alike come from different tables or passages of the source.

Experiments:
[1] = system: CWR22Rv1 xenografts; test: Antitumor efficacy in castration-resistant CWR22Rv1 xenograft model; format: in vivo, male NOD SCID mice; settings: 5 days/week, 16 days
Experimental: Following the in vitro studies and determination of the PK parameters, we then investigated the relative efficacy. Gal and the NGGAs in vivo using difficult-to-treat castration-resistant CWR22Rv1 xenografts. Given the enhanced IP and PO PK parameters of VNPP414 and VNPP433-3β over Gal, we decided to use lower doses of the new analogs compared to the previous Gal doses (200 mg/kg, IP/PO). Gal (200 mg/kg) served as positive control, while ENZ (25 mg/kg) administered PO was used as negative control. Male NOD SCID mice bearing CWR22Rv1 tumors were treated with vehicle, ENZ, Gal, VNPP414, and VNPP433-3β for 16 days as described in the Methods and Materials Section. […] In contrast, Gal and the NGGAs caused statistically significant tumor growth inhibition (TGI). […] It is notable that VNPP433-3β (at 7.5- and 15-fold lower molar doses) and VNPP414 (at 4-fold lower molar dose) are more efficacious than Gal. In general, no host toxicities were observed, as monitored by changes in animal body weight (Figure 7C).
Figure 7 Effects of Gal, NGGAs and ENZ in an in vivo castration-resistant prostate cancer model. (A) Mice bearing CWR22Rv1 xenografts (5 mice per group) were treated with vehicle, Gal (100 mg/kg/twice daily), VNPP414 (60 mg/kg, once daily), VNPP433-3β (15 or 30 mg/kg, once daily) and ENZ (25 mg.kg, once daily) 5 days per week for 16 days. Tumor volumes were measured twice a week and the tumors were collected. Tumor growth inhibition (TGI) values are indicated at the right of each growth curve, and the error bars are the SEM. Results are represented as means ± SEM. ^# p = ns (not significant vs. vehicle), ^$ p < 0.0272 vs. vehicle, * p < 0.0035 vs. vehicle, ** p < 0.0025 vs. vehicle and *** p < 0.0008 vs. vehicle. (B) Photographed tumors from each group. (C) Mean body weights of mice determined during the study. (D) Western blot analyses of tumor samples from each experimental group at day 16. […] It is left out because vehicle is a control, not a substance.
Male NOD SCID mice 5–6 weeks of age were obtained from University of Maryland School of Medicine Veterinary Resources (Baltimore, MD, USA. Mice were housed under complete aseptic conditions, fed autoclaved pellets and sterile water ad libitum. Following a week of acclimatization, approximately 5 × 10^6 CWR22Rv1 cells were inoculated one flank f mice. Tumor-bearing mice (tumor volume around ~100 mm^3) were randomized into 6 groups (5 mice in each group; compounds formulated in vehicle) and treated as follows: (i) vehicle control (40% β-cyclodextrin in saline, PO.), (ii) ENZ (25 mg/kg, PO, once daily), (iii) Gal (100mg/kg, PO, twice daily), (iv) VNPP414 (60 mg/kg, PO, once daily), (v) VNPP433-3β (15 mg/kg, PO, once daily), and (vi) VNPP433-3β (30 mg/kg, PO, once daily) for 5 days/week. Tumors were measured twice weekly with calipers and tumor volume was calculated by the formula: length × width^2 × 0.5 (mm^3). Animals were also weighed weekly and monitored for general health status and signs of possible toxicity due to treatments. Mice were sacrificed after the indicated periods of treatment and tumors excised. Tumors were divided and either flash frozen in liquid nitrogen or placed in 10% buffered formalin for western blot analysis.

[2] = target: T1, Mnk1 (Homo sapiens, UniProt Q9BUB5); test: Protein level decrease by western blot, dose-response in CWR22Rv1 cells; format: cell-based; settings: for times more effective (than Gal) in degrading Mnk1: from EC50 values
T1 construct: compound treatments (0–7.5 µM) of CWR22Rv1 cells for 72 h followed by western blot analysis of cells lysates; endogenous in cells; host or cells: CWR22Rv1
T1 sequence (Q9BUB5 whole entry): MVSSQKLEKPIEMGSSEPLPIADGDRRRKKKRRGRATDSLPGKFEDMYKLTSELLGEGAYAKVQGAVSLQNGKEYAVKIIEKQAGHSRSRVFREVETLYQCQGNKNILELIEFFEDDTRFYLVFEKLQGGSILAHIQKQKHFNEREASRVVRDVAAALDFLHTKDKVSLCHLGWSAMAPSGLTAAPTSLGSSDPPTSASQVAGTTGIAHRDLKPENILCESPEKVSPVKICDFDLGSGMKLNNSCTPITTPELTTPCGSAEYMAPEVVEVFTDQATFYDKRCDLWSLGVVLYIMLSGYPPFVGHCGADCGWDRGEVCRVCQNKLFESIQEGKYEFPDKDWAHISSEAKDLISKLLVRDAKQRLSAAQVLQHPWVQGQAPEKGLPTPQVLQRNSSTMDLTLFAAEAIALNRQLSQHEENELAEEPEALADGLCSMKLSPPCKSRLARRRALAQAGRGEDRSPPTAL
Text: Figure 4 Impact of Gal and NGGAs on AR/AR-V7 and Mnk1/2-eIF4E signaling pathways. (A) Western blot showing the effects of Gal and VNPT55 (55) on Mnk1, Mnk2, and peIF4E. (B) Western blot showing the effects of VNPP414 (414) and VNPP433-3β (433)) on Mnk1, Mnk2, and peIF4E. (C) Western blot showing dose-dependent effect of VNPP433-3β (433) on Mnk2, BMI-1, and peIF4E in CWR-R1 cells. (D) Western blot showing dose-dependent effect of Gal on Mnk1, Mnk2, BMI-1, and Snail1 in drug-resistant CWR-R1(10E) cells. (E) Western blot showing dose-dependent effect of VNPP433-3β (433) on Mnk1, Mnk2, BMI-1, and Snail1 in drug-resistant CWR-R1(10E) cells. (F) EC50 values (for fAR, ARV-7 and Mnk1) for compounds determined from dose–response curves upon compound treatments (0–7.5 µM) of CWR22Rv1 cells for 72 h followed by western blot analysis of cells lysates. Note: the numbers in parentheses in Figure 4B are concentrations of the agents in µM.
We further determined the effects of lead NGGAs on f-AR, AR-V7 and Mnk1 protein levels in CWR22Rv1 cells. Following agent treatments (0–7.5 µM), the EC50 values were determined from dose–response curves. […] Of note is the finding that although there was no dramatic difference between the agents in terms of their effects on f-AR suppression, there were significant differences in their relative potencies against AR-V7 and Mnk1.
Cells were lysed with radioimmunoprecipitation assay (RIPA) buffer (Sigma, St. Louis, MO, USA), supplemented with 1X protease inhibitors (Roche, Indianapolis, IN, USA), phosphatase inhibitors (Thermo Scientific, Waltham, MA, USA), 1 mmol/L EDTA and 1 mmol/L PMSF (Sigma). Western blot analyses were performed as in Kwegyir-Afful et al., 2015 [2].

[3] = 0–7.5 µM, 72 h, western blot, read-out: Mnk1 EC50

| SMILES | tumor growth inhibition (TGI) ([1]; 15 mg/kg PO once daily) | tumor growth inhibition (TGI) ([1]; 30 mg/kg PO once daily) | times more effective (than Gal) in degrading Mnk1 [2] | DC50 ([2]; read-out: Mnk1 EC50, 0–7.5 µM, 72 h, western blot) | tumor growth inhibition (TGI) ([1]; 200 mg/kg (100 mg/kg PO twice daily), listed as Gal) | DC50 [2, 3] | tumor growth inhibition (TGI) ([1]; 60 mg/kg PO once daily) |
| --- | --- | --- | --- | --- | --- | --- | --- |
| C[C@]12CC[C@H](n3ccnc3)CC1=CCC1C2CC[C@]2(C)C(n3cnc4ccccc43)=CCC12 (stereo partly drawn) [VNPP433-3β] | 60.5% | 84% and 83.7% | 66.0 times | 80 nM | – | – | – |
| C[C@]12CC[C@H](O)CC1=CC[C@@H]1[C@@H]2CC[C@]2(C)C(n3cnc4ccccc43)=CC[C@@H]12 [Galeterone] | – | – | – | – | 47% and 46.5% | 5290 ± 90 nM | – |
| C[C@]12CC[C@H](OCc3ccncc3)CC1=CCC1C2CC[C@]2(C)C(n3cnc4ccccc43)=CCC12 (stereo partly drawn) [VNPP414] | – | – | 9.4 times | – | – | 560 ± 70 nM | 62.8% |
